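Test compounds were applied to cells in 96-well plates for 48 hours at 5 doses. GI50: concentration for 50% inhibition of growth. TGI: concentration producing complete growth inhibition.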
Key:
Experiment in all cases: NCI tumour cell line growth inhibition, 48 h
DLD-1 colon = test system: DLD-1 colon
DMS 114 small cell lung = test system: DMS 114 small cell lung
DMS 273 small cell lung = test system: DMS 273 small cell lung
HOP-18 NSCLC = test system: HOP-18 NSCLC
KM20L2 colon = test system: KM20L2 colon
M19-MEL melanoma = test system: M19-MEL melanoma
MALME-3M melanoma = test system: MALME-3M melanoma
P388 leukemia = test system: P388 leukemia
P388/ADR leukemia = test system: P388/ADR leukemia
SN12K1 renal = test system: SN12K1 renal
XF 498 CNS = test system: XF 498 CNS
HS 578T breast = test system: HS 578T breast
MDA-MB-231 breast = test system: MDA-MB-231 breast
MDA-MB-435 = test system: MDA-MB-435
MDA-N = test system: MDA-N
PC-3 prostate = test system: PC-3 prostate
786-0 renal = test system: 786-0 renal
LXFL 529 NSCLC = test system: LXFL 529 NSCLC

| Structure (SMILES) | TGI (DMS 114 small cell lung) [µM] | TGI (KM20L2 colon) [µM] | TGI (M19-MEL melanoma) [µM] | TGI (MALME-3M melanoma) [µM] | TGI (HS 578T breast) [µM] | TGI (MDA-MB-231 breast) [µM] | TGI (MDA-MB-435) [µM] | TGI (MDA-N) [µM] | TGI (PC-3 prostate) [µM] | other results |
| --- | --- | --- | --- | --- | --- | --- | --- | --- | --- | --- |
| c1ccc(C(c2ccccc2)[P+](c2ccccc2)(c2ccccc2)c2ccccc2)cc1 | 2.73 | 11.8 | 9.69 | 14.7 | – | – | – | – | – | TGI (DLD-1 colon): 14.2 µM; TGI (DMS 273 small cell lung): 2.17 µM; TGI (HOP-18 NSCLC): 2.74 µM; TGI (P388 leukemia): 1.89 µM; TGI (P388/ADR leukemia): 31.8 µM; TGI (SN12K1 renal): 12.3 µM; TGI (XF 498 CNS): 0.737 µM |
| C=CCOC1OC(CS(=O)(=O)O)C(O)C(O)C1O (stereo not drawn) | – | – | – | > 100 | > 100 | > 100 | > 100 | > 100 | > 100 | – |
| O=C(O)CSCC(=O)O | – | – | – | > 100 | > 100 | > 100 | > 100 | > 100 | > 100 | TGI (786-0 renal): > 100 µM |
| COc1cc(-c2c(C#N)c(N)c(C#N)c3c2COc2ccccc2-3)cc(OC)c1OC | – | – | – | 48.8 | 39.7 | 40.2 | > 100 | > 100 | > 100 | – |
| CS/C(=N\C(=S)Nc1ccccc1)Nc1ccccc1 | 52.6 | > 100 | 81 | 60.4 | – | – | – | – | – | – |
| COc1ccc(C2C(=O)C(Cl)N2Nc2nc(C)cc(=O)[nH]2)cc1OC (stereo not drawn) | – | > 100 | > 100 | – | – | – | – | – | – | TGI (DMS 273 small cell lung): 84.3 µM; TGI (HOP-18 NSCLC): 53.7 µM; TGI (LXFL 529 NSCLC): > 100 µM |
| FC(F)(F)C(C1=NC(C(F)(F)F)(C(F)(F)F)N=C(N2CCOCC2)O1)C(F)(F)F | – | – | – | – | > 100 | 36.1 | 59.3 | 53.8 | 63.2 | – |
| CCCCCCCCCCCCCCCC[N+](C)(C)CCN(Cc1ccc(OC)cc1)c1ncccn1 | – | – | – | – | 4.4 | 4.94 | – | – | – | GI50 (HS 578T breast): 1.76 µM; GI50 (MDA-MB-231 breast): 2 µM |
| COc1ccccc1N1C(Cl)C(=O)C1c1c[nH]c2ccccc12 (stereo not drawn) | > 100 | > 100 | > 100 | – | – | – | – | – | – | TGI (LXFL 529 NSCLC): > 100 µM; TGI (XF 498 CNS): > 100 µM |

Reference: PubChem BioAssay (NCI)
